# Reference: patent publication US20110130397A1, “PYRROLINONE COMPOUNDS AS INHIBITORS OF BACTERIAL PEPTIDYL TRNA HYDROLASE AND USES THEREOF” (priority 2006, published 2011)
# Assay: not given
# Details: not given
row,melting point,Compound
1,195 to 197 °C,CC(=O)c1sc(N2C(=O)C(O)=C(C(=O)c3cc4ccccc4o3)C2c2ccc(OCc3ccccc3)cc2)nc1C (stereo not drawn) [Compound 10]
2,241 to 243 °C,Cc1cnc(N2C(=O)C(O)=C(C(=O)c3cc4ccccc4o3)C2c2ccc(OCc3ccccc3)cc2)s1 (stereo not drawn) [Compound 50]
3,213 to 214 °C,O=C(C1=C(O)C(=O)N(c2nc3ccccc3s2)C1c1ccc(OCc2ccccc2)cc1)c1cc2ccccc2o1 (stereo not drawn) [Compound 51]
4,150 to 154 °C,O=C(C1=C(O)C(=O)N(c2nncs2)C1c1ccc(OCc2ccccc2)cc1)c1cc2ccccc2o1 (stereo not drawn) [Compound 52]
5,193 to 195 °C,O=C(C1=C(O)C(=O)N(c2nccs2)C1c1ccc(OCc2ccccc2)cc1)c1cc2ccccc2o1 (stereo not drawn) [Compound 53]

# Assay: Cytotoxicity (CellTiter 96 Aqueous Non-Radioactive Cell Proliferation Assay)
# Assay type: cell-based
# Details: human, Huh7 cells
# Description: Novel antibacterial peptidyl tRNA hydrolase inhibitors were identified using the MIC assay (inhibition ranged from 32-100%). The inhibitors were also bacteria specific, as evidenced by the low cytotoxicity observed for the human Huh7 cells (FIG. 4). Cytotoxicity was determined according to manufacturer's directions (CellTiter 96 Aqueous Non-Radioactive Cell Proliferation Assay, Promega).
# Further data for representative compounds is set forth in Table 1 (MIC and cytotoxicity). Compounds were tested against S. aureus (ATCC 29213) and E. coli (BAS849—permeable) in the MIC assays. Certain compounds were also tested against other bacteria, including S. epidermis (ATCC 12228), E. faecium (ATCC 49624), and E. faecalis (ATCC 29212). Cytotoxicity was determined using Hu7 cells and Hep G2 cells. The MIC and cytotoxicity assays were performed as described above.
row,Compound,CC50
1,CCOc1cc(C2C(C(=O)c3cc4ccccc4o3)=C(O)C(=O)N2c2nnc(SCc3ccccc3F)s2)ccc1O (stereo not drawn) [Compound 3],> 83 µM
2,CCOc1cc(C2C(C(=O)c3cc4ccccc4o3)=C(O)C(=O)N2c2nc3c(C)cc(C)cc3s2)ccc1O (stereo not drawn) [Compound 4],53.4 µM
3,CCOc1cc(C2C(C(=O)c3cc4ccccc4o3)=C(O)C(=O)N2c2nnc(SCc3ccccc3)s2)ccc1O (stereo not drawn) [Compound 7],> 85 µM
4,Cc1ccc2nc(N3C(=O)C(O)=C(C(=O)c4cc5ccccc5o4)C3c3cccc(O)c3)sc2c1 (stereo not drawn) [Compound 8],80.1 µM
5,COc1cc(C2C(C(=O)c3cc4ccccc4o3)=C(O)C(=O)N2c2nnc(C)s2)ccc1OCc1ccccc1 (stereo not drawn) [Compound 9],> 90 µM
6,CC(=O)c1sc(N2C(=O)C(O)=C(C(=O)c3cc4ccccc4o3)C2c2ccc(OCc3ccccc3)cc2)nc1C (stereo not drawn) [Compound 10],> 89 µM
7,COc1cc(C2C(C(=O)c3cc4ccccc4o3)=C(O)C(=O)N2c2nc(C)c(C(C)=O)s2)ccc1OCc1ccccc1 (stereo not drawn) [Compound 11],> 84 µM
8,O=C(C1=C(O)C(=O)N(c2nnc(SCc3ccc(Cl)cc3)s2)C1c1cccc(O)c1)c1cc2ccccc2o1 (stereo not drawn) [Compound 12],> 87 µM
9,CCOc1cc(C2C(C(=O)c3cc4ccccc4o3)=C(O)C(=O)N2c2nc(C)c(C(C)=O)s2)ccc1O (stereo not drawn) [Compound 13],59.8 µM
10,CCCCCOc1ccc(C2C(C(=O)c3cc4ccccc4o3)=C(O)C(=O)N2c2nc(C)c(C(C)=O)s2)cc1OC (stereo not drawn) [Compound 14],74.2 µM
11,O=C(C1=C(O)C(=O)N(c2nnc(SCc3ccc(F)cc3)s2)C1c1cccc(O)c1)c1cc2ccccc2o1 (stereo not drawn) [Compound 15],> 89 µM
12,CC(=O)C1=C(O)C(=O)N(c2nccs2)C1c1ccccc1 (stereo not drawn) [Compound 22],29.7 µM
13,CCOC(=O)c1sc(N2C(=O)C(O)=C(C(=O)c3ccc(C)cc3)C2c2cccs2)nc1C (stereo not drawn) [Compound 28],89.1 µM
14,COC(=O)c1sc(N2C(=O)C(O)=C(C(=O)c3ccc(F)cc3)C2c2ccc(F)cc2)nc1C (stereo not drawn) [Compound 31],46.5 µM
15,Cc1nnc(N2C(=O)C(O)=C(C(=O)c3ccc(OC(C)C)cc3)C2c2ccco2)s1 (stereo not drawn) [Compound 33],> 110 µM
16,CCOC(=O)c1sc(N2C(=O)C(O)=C(C(=O)c3ccc(F)cc3)C2c2cccs2)nc1C (stereo not drawn) [Compound 40],62.9 µM
17,COc1ccc(C(=O)C2=C(O)C(=O)N(c3nccs3)C2c2ccc(Cl)cc2)cc1C (stereo not drawn) [Compound 44],51.5 µM
18,CCOC(=O)c1sc(N2C(=O)C(O)=C(C(=O)c3ccco3)C2c2ccco2)nc1C (stereo not drawn) [Compound 45],96.2 µM
19,Cc1nc(C)c(C(=O)C2=C(O)C(=O)N(c3nc4ccc(Cl)cc4s3)C2c2cccs2)s1 (stereo not drawn) [Compound 49],> 111 µM
20,Cc1cnc(N2C(=O)C(O)=C(C(=O)c3cc4ccccc4o3)C2c2ccc(OCc3ccccc3)cc2)s1 (stereo not drawn) [Compound 50],82 µM
21,O=C(C1=C(O)C(=O)N(c2nc3ccccc3s2)C1c1ccc(OCc2ccccc2)cc1)c1cc2ccccc2o1 (stereo not drawn) [Compound 51],82.3 µM
22,O=C(C1=C(O)C(=O)N(c2nncs2)C1c1ccc(OCc2ccccc2)cc1)c1cc2ccccc2o1 (stereo not drawn) [Compound 52],> 90 µM
23,O=C(C1=C(O)C(=O)N(c2nccs2)C1c1ccc(OCc2ccccc2)cc1)c1cc2ccccc2o1 (stereo not drawn) [Compound 53],> 98 µM
24,Cc1ccc(C2C(C(=O)c3ccc(Cl)cc3)=C(O)C(=O)N2c2nccs2)cc1 (stereo not drawn) [Compound 59],60.5 µM
25,CCc1ccc2nc(N3C(=O)C(O)=C(C(=O)c4ccccc4)C3c3cccs3)sc2c1 (stereo not drawn) [Compound 118],10.8 µM
26,CCc1ccc2nc(N3C(=O)C(O)=C(C(=O)c4ccccc4)C3c3ccco3)sc2c1 (stereo not drawn) [Compound 119],10.8 µM
27,CCc1ccc2nc(N3C(=O)C(O)=C(C(=O)c4ccco4)C3c3cccs3)sc2c1 (stereo not drawn) [Compound 122],58.2 µM
28,Cc1cc(C)c2nc(N3C(=O)C(O)=C(C(=O)c4ccc5c(c4)OCCO5)C3c3cccnc3)sc2c1 (stereo not drawn) [Compound 126],27.4 µM
